Consider 6 molecules from US5366543A, “Alcohol-soluble dye and ink composition containing the same” (Orient Chemical Industries, Ltd., priority 1992, dated 1994).

This data set in a line: Solubility Comparing Test (saturation concentration of dye in alcohol type solvents). It is filed as physicochemical. As to conditions: for Solubility, Mixed solvent: Phenylene glycol:Benzyl alcohol:oleic acid = 4:1:1; for Solubility, Mixed solvent / Solubility, Ethylene glycol: dye added after heating the solvent to 70-80 C; for Solubility, Ethanol / Solubility, n-Propanol: saturation concentration by spotting on filter paper. As for the experimental part:
Solubility of disazo salt-forming dyes (dye 1-5) obtained in Examples 1-5 and dyes a-c into alcohol type organic […] was tested. While stirring each dye with a magnet stirrer, the dye was first added to 100 parts of solvent and it was spotted on the filter paper (Toyo filter paper No. 2) to investigate the saturation concentration. When ethylene glycol or mixed solvent was used for the solvent, dye was added after heating the solvent to 70-80 C.
Phenylene glycol:Benzyl alcohol:oleic acid = 4:1:1
2) Numbers in the Table indicate the solubility (wt %) into the respectiv

With `COc1cc(N=Nc2ccccc2)c(C)cc1N=Nc1c(S(=O)(=O)O)cc2cc(S(=O)(=O)O)cc(N)c2c1O` [Dye c, reference compound], the “Solubility, Mixed solvent” value is reported as 40 wt %; the “Solubility, Ethanol” value is given as 10 wt %; the “Solubility, Ethylene glycol” value is reported as 30 wt %; the “Solubility, n-Propanol” value is listed as 10 wt %.

`O=S(=O)(O)c1cc2cc(Nc3ccc4c(O)c(N=Nc5ccccc5)c(S(=O)(=O)O)cc4c3)ccc2c(O)c1N=Nc1ccccc1` [Dye b, reference compound]: the “Solubility, Ethanol” value (listed as b) stood at 5 wt %.

As for `O=S(=O)(O)c1cc2cc(Nc3ccc4c(O)c(N=Nc5ccccc5)c(S(=O)(=O)O)cc4c3)ccc2c(O)c1N=Nc1ccccc1` [Dye a], the “Solubility, Mixed solvent” value came out at 30 wt %; the “Solubility, Ethylene glycol” value was 30 wt %; the “Solubility, n-Propanol” value came to 5 wt %. In addition, for the setting “listed as a”, the “Solubility, Ethanol” value stood at 10 wt %.

Take `CCC(C)c1ccc(N=Nc2c(S(=O)(=O)O)cc3cc(Nc4ccc5c(O)c(N=Nc6ccc(C(C)CC)cc6)c(S(=O)(=O)O)cc5c4)ccc3c2O)cc1` (centres unmarked) [Dye 3]: for the setting “listed as 3”, the “Solubility, Mixed solvent” value was 30 wt %; the “Solubility, Ethanol” value is 20 wt %; the “Solubility, n-Propanol” value amounted to 10 wt %.

Turning to `CCC(C)c1ccc(N=Nc2c(S(=O)(=O)O)cc3cc(Nc4ccc5c(O)c(N=Nc6ccc(C(C)CC)cc6)c(S(=O)(=O)O)cc5c4)ccc3c2O)cc1` (centres unmarked) [Dye 1], the “Solubility, Ethylene glycol” value was 30 wt %. For the same molecule, where the note is “listed as 1”, the “Solubility, Mixed solvent” value is 30 wt %; the “Solubility, Ethanol” value amounted to 20 wt %; the “Solubility, n-Propanol” value is 15 wt %.

Consider `CCC(C)c1ccc(N=Nc2c(S(=O)(=O)O)cc3cc(Nc4ccc5c(O)c(N=Nc6ccc(C(C)CC)cc6)c(S(=O)(=O)O)cc5c4)ccc3c2O)cc1` (centres unmarked) [Dye 2], for which the “Solubility, Ethylene glycol” value stood at 30 wt %. Also, where the note is “listed as 2”, the “Solubility, Mixed solvent” value came out at 40 wt %; the “Solubility, Ethanol” value is recorded as 25 wt %; the “Solubility, n-Propanol” value came to 20 wt %.
